Laboratory results: US6737383B1, “Herbicidal oxadiazolidines” (priority 1999, dated 2004)

Legend:
bedstraw = assay: Test B pre/postemergence bedstraw; assay type: in vivo, Galium aparine; settings: Postemergence
Procedure, shortened: (§1)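 Response is a visual 0-to-10 score relative to untreated plants, where 0 means no effect and 10 means complete control, taken twelve to sixteen days after application. Treatments went onto soil at planting and onto foliage of 1- to 4-leaf plants, using a surfactant-containing non-phytotoxic solvent.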

blackgrass = assay: Test B pre/postemergence blackgrass; assay type: in vivo, Alopecurus myosuroides
Procedure, shortened: as §1

surinam grass = assay: Test B pre/postemergence surinam grass; assay type: in vivo, Brachiaria decumbens
Procedure, shortened: as §1

corn = assay: Test B pre/postemergence corn; assay type: in vivo, Zea mays
Procedure, shortened: as §1

crabgrass = assay: Test B pre/postemergence crabgrass; assay type: in vivo, Digitaria sanguinalis
Procedure, shortened: as §1

pigweed = assay: Test B pre/postemergence pigweed; assay type: in vivo, Amaranthus retroflexus
Procedure, shortened: as §1

rape = assay: Test B pre/postemergence rape; assay type: in vivo, Brassica napus; settings: for Plant response rating, Rape: scale of 0 to 10 where 0 is no effect and 10 is complete control
Procedure, shortened: as §1

soybean = assay: Test B pre/postemergence soybean; assay type: in vivo, Glycine max; settings: for Plant response rating, Soybean: scale of 0 to 10 where 0 is no effect and 10 is complete control
Procedure, shortened: as §1

sugar beet = assay: Test B pre/postemergence sugar beet; assay type: in vivo, Beta vulgaris; settings: for Plant response rating, Sugarbeets: scale of 0 to 10 where 0 is no effect and 10 is complete control
Procedure, shortened: as §1

velvetleaf = assay: Test B pre/postemergence velvetleaf; assay type: in vivo, Abutilon theophrasti; settings: for Plant response rating, Velvetleaf: scale of 0 to 10 where 0 is no effect and 10 is complete control
Procedure, shortened: as §1

wheat = assay: Test B pre/postemergence wheat; assay type: in vivo, Triticum aestivum; settings: for Plant response rating, Wheat: scale of 0 to 10 where 0 is no effect and 10 is complete control
Procedure, shortened: as §1

wild oat = assay: Test B pre/postemergence wild oat; assay type: in vivo, Avena fatua; settings: for Plant response rating, Wild oats: scale of 0 to 10 where 0 is no effect and 10 is complete control
Procedure, shortened: as §1

purple nutsedge = assay: Test B pre/postemergence purple nutsedge; assay type: in vivo, Cyperus rotundus; settings: for Plant response rating, Nutsedge: scale of 0 to 10 where 0 is no effect and 10 is complete control
Procedure, shortened: as §1

rice = assay: Test B flood test rice; assay type: in vivo, Oryza sativa
Procedure, shortened: (§2)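 Flood test on plants grown to the 2-leaf stage; treated plants kept in greenhouse twelve to sixteen days, then visually rated against controls on a 0 (no effect) to 10 (complete control) scale.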

smallflower flatsedge = assay: Test B flood test smallflower flatsedge; assay type: in vivo, Cyperus difformis
Procedure, shortened: as §2

duck salad = assay: Test B flood test duck salad; assay type: in vivo, Heteranthera limosa
Procedure, shortened: as §2

[1] = Postemergence, Rate 250 g/ha, scale 0 to 10
[2] = Postemergence, Rate 500 g/ha, scale of 0 to 10 where 0 is no effect and 10 is complete control
[3] = Preemergence, Rate 62 g/ha, scale of 0 to 10 where 0 is no effect and 10 is complete control
[4] = Preemergence, Rate 125 g/ha, scale of 0 to 10 where 0 is no effect and 10 is complete control
[5] = Preemergence, Rate 250 g/ha, scale 0 to 10, 0 is no effect, 10 is complete control
[6] = Preemergence, Rate 500 g/ha, scale 0 to 10, 0 is no effect, 10 is complete control
[7] = Rate 62 g/ha, Postemergence, scale 0 to 10 (0 no effect, 10 complete control)
[8] = Rate 125 g/ha, Postemergence, scale 0 to 10, 0 is no effect, 10 is complete control
[9] = Rate 62 g/ha, flood test species, Pre-emergence, visual evaluation after twelve to sixteen days
[10] = Rate 125 g/ha, under heading Pre-emergence, flood test species, visual evaluation after twelve to sixteen days
[11] = Rate 250 g/ha, Pre-emergence (flood test species), scale 0 to 10, 0 is no effect, 10 is complete control
[12] = Rate 500 g/ha, Pre-emergence, flood test species, scale 0 to 10 (0 no effect, 10 complete control)

`CC(C)N(C(=O)n1oc(=O)n(C(C)C(=O)N(C)C)c1=O)c1ccc(Cl)cc1` (stereo not shown) [Compound 480] was tested, and the “Bedstraw plant response rating” value (bedstraw; Rate 250 g/ha, scale 0 to 10) was 0, the “Bedstraw plant response rating” value (bedstraw; Rate 500 g/ha, scale of 0 to 10 where 0 is no effect and 10 is complete control) was 0 and the “Bedstraw plant response rating” value (bedstraw; Rate 62 g/ha, scale 0 to 10 (0 no effect, 10 complete control)) was 0. For the same molecule, the “Bedstraw plant response rating” value (bedstraw; Rate 125 g/ha, scale 0 to 10, 0 is no effect, 10 is complete control) was 0, the “Blackgrass plant response rating” value (blackgrass; [1]) was 3 and the “Blackgrass plant response rating” value (blackgrass; [2]) was 8. The “Plant response rating, Blackgrass” value (blackgrass; [3]) was 3, the “Plant response rating, Blackgrass” value (blackgrass; [4]) was 5 and the “Blackgrass plant response rating” value (blackgrass; [5]) was 8. For the same molecule, the “Blackgrass plant response rating” value (blackgrass; [6]) was 9, the “Blackgrass plant response rating” value (blackgrass; [7]) was 0 and the “Blackgrass plant response rating” value (blackgrass; [8]) was 3. For the same molecule, the “B. signalgrass plant response rating” value (surinam grass; Postemergence, Rate 250 g/ha, scale 0 to 10, 0 no effect, 10 complete control) was 5, the “B. signalgrass plant response rating” value (surinam grass; [2]) was 6 and the “Plant response rating, B. signalgrass” value (surinam grass; [3]) was 0. For the same molecule, the “Plant response rating, B. signalgrass” value (surinam grass; [4]) was 4, the “B. signalgrass plant response rating” value (surinam grass; [5]) was 7 and the “B. signalgrass plant response rating” value (surinam grass; [6]) was 9. For the same molecule, the “B. signalgrass plant response rating” value (surinam grass; [7]) was 0, the “B. signalgrass plant response rating” value (surinam grass; [8]) was 3 and the “Corn plant response rating” value (corn; [1]) was 0. The “Corn plant response rating” value (corn; [2]) was 2, the “Plant response rating, Corn” value (corn; [3]) was 0 and the “Plant response rating, Corn” value (corn; [4]) was 0. For the same molecule, the “Corn plant response rating” value (corn; [5]) was 0, the “Corn plant response rating” value (corn; [6]) was 3 and the “Corn plant response rating” value (corn; [7]) was 0. The “Corn plant response rating” value (corn; [8]) was 0, the “Crabgrass plant response rating” value (crabgrass; [1]) was 7 and the “Crabgrass plant response rating” value (crabgrass; [2]) was 8. The “Plant response rating, Crabgrass” value (crabgrass; [3]) was 7, the “Plant response rating, Crabgrass” value (crabgrass; [4]) was 8 and the “Crabgrass plant response rating” value (crabgrass; [5]) was 8. The “Crabgrass plant response rating” value (crabgrass; [6]) was 10, the “Crabgrass plant response rating” value (crabgrass; [7]) was 2 and the “Crabgrass plant response rating” value (crabgrass; [8]) was 6. For the same molecule, the “Redroot pigweed plant response rating” value (pigweed; [1]) was 1, the “Plant response rating, Redroot pigweed” value (pigweed; [3]) was 2 and the “Redroot pigweed plant response rating” value (pigweed; [5]) was 8. The “Redroot pigweed plant response rating” value (pigweed; [6]) was 9, the “Redroot pigweed plant response rating” value (pigweed; [7]) was 0 and the “Redroot pigweed plant response rating” value (pigweed; [8]) was 0. The “Rape plant response rating” value (rape; [1]) was 0, the “Plant response rating, Rape” value (rape; Preemergence, Rate 62 g/ha) was 0 and the “Plant response rating, Rape” value (rape; Preemergence, Rate 125 g/ha) was 0. For the same molecule, the “Rape plant response rating” value (rape; [5]) was 0, the “Rape plant response rating” value (rape; [6]) was 0 and the “Rape plant response rating” value (rape; [7]) was 0. For the same molecule, the “Rape plant response rating” value (rape; [8]) was 0, the “Soybean plant response rating” value (soybean; [1]) was 3 and the “Plant response rating, Soybean” value (soybean; Preemergence, Rate 62 g/ha) was 0. For the same molecule, the “Plant response rating, Soybean” value (soybean; Preemergence, Rate 125 g/ha) was 0, the “Soybean plant response rating” value (soybean; [5]) was 0 and the “Soybean plant response rating” value (soybean; [6]) was 1. The “Soybean plant response rating” value (soybean; [7]) was 2, the “Soybean plant response rating” value (soybean; [8]) was 3 and the “Sugarbeets plant response rating” value (sugar beet; [1]) was 0. For the same molecule, the “Plant response rating, Sugarbeets” value (sugar beet; Preemergence, Rate 62 g/ha) was 0, the “Plant response rating, Sugarbeets” value (sugar beet; Preemergence, Rate 125 g/ha) was 0 and the “Sugarbeets plant response rating” value (sugar beet; [5]) was 0. For the same molecule, the “Sugarbeets plant response rating” value (sugar beet; [6]) was 0, the “Sugarbeets plant response rating” value (sugar beet; [7]) was 0 and the “Sugarbeets plant response rating” value (sugar beet; [8]) was 0. The “Velvetleaf plant response rating” value (velvetleaf; [1]) was 0, the “Plant response rating, Velvetleaf” value (velvetleaf; Preemergence, Rate 62 g/ha) was 0 and the “Plant response rating, Velvetleaf” value (velvetleaf; Preemergence, Rate 125 g/ha) was 0. The “Velvetleaf plant response rating” value (velvetleaf; [5]) was 0, the “Velvetleaf plant response rating” value (velvetleaf; [6]) was 0 and the “Velvetleaf plant response rating” value (velvetleaf; [7]) was 0. For the same molecule, the “Velvetleaf plant response rating” value (velvetleaf; [8]) was 0, the “Wheat plant response rating” value (wheat; [1]) was 0 and the “Plant response rating, Wheat” value (wheat; Preemergence, Rate 62 g/ha) was 0. For the same molecule, the “Plant response rating, Wheat” value (wheat; Preemergence, Rate 125 g/ha) was 0, the “Wheat plant response rating” value (wheat; [5]) was 0 and the “Wheat plant response rating” value (wheat; [6]) was 2. For the same molecule, the “Wheat plant response rating” value (wheat; [7]) was 0, the “Wheat plant response rating” value (wheat; [8]) was 0 and the “Wild oats plant response rating” value (wild oat; [1]) was 0. The “Plant response rating, Wild oats” value (wild oat; Preemergence, Rate 62 g/ha) was 0, the “Plant response rating, Wild oats” value (wild oat; Preemergence, Rate 125 g/ha) was 2 and the “Wild oats plant response rating” value (wild oat; [5]) was 4. The “Wild oats plant response rating” value (wild oat; [6]) was 7, the “Wild oats plant response rating” value (wild oat; [7]) was 0 and the “Wild oats plant response rating” value (wild oat; [8]) was 0. The “Nutsedge plant response rating” value (purple nutsedge; [1]) was 0, the “Plant response rating, Nutsedge” value (purple nutsedge; Preemergence, Rate 62 g/ha) was 0 and the “Plant response rating, Nutsedge” value (purple nutsedge; Preemergence, Rate 125 g/ha) was 0. The “Nutsedge plant response rating” value (purple nutsedge; [5]) was 0, the “Nutsedge plant response rating” value (purple nutsedge; [6]) was 0 and the “Nutsedge plant response rating” value (purple nutsedge; [7]) was 0. For the same molecule, the “Nutsedge plant response rating” value (purple nutsedge; [8]) was 0, the “Plant response rating, Rice (0 to 10 scale, 0 is no effect, 10 is complete control)” value (rice; [9]) was 0 and the “Rice plant response rating (0 to 10 scale, 0 is no effect, 10 is complete control)” value (rice; [10]) was 0. The “Rice plant response rating” value (rice; [11]) was 0, the “Rice plant response rating” value (rice; [12]) was 0 and the “Plant response rating, S. Flatsedge (0 to 10 scale, 0 is no effect, 10 is complete control)” value (smallflower flatsedge; [9]) was 0. For the same molecule, the “S. Flatsedge plant response rating (0 to 10 scale, 0 is no effect, 10 is complete control)” value (smallflower flatsedge; [10]) was 0, the “S. Flatsedge plant response rating” value (smallflower flatsedge; [11]) was 0 and the “S. Flatsedge plant response rating” value (smallflower flatsedge; [12]) was 0. For the same molecule, the “Plant response rating, Ducksalad (0 to 10 scale, 0 is no effect, 10 is complete control)” value (duck salad; [9]) was 0, the “Ducksalad plant response rating (0 to 10 scale, 0 is no effect, 10 is complete control)” value (duck salad; [10]) was 0 and the “Ducksalad plant response rating” value (duck salad; [11]) was 0. For the same molecule, the “Ducksalad plant response rating” value (duck salad; [12]) was 0.
